Data on 15 molecules can be found in US10954214B2 (Janssen Pharmaceutica NV, priority 2016, dated 2021).

Read-outs that look alike come from different tables or passages of the source.

Assay [1] deals with IL6 secretion by TMD8 ABC-DLBCL cells. Put plainly: Human IL6 Mesoscale assay (TMD-8). The note with it: Homo sapiens, TMD8; TMD-8 cells, 24 h. It is filed as cell-based. In short, it runs like this: (§1)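 100,000 cells/well treated with compound in 9 twofold steps from 15 μM to 58.6 nM (0.3% DMSO) for 24 h at 37° C; supernatant cytokine measured by MSD electrochemiluminescence sandwich immunoassay. DMSO wells set maximum signal, BTK inhibitor RN486 (30 nM to 131 pM) set maximum inhibition.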

The subject of assay [2] is TMD8 cells. The assay can be described thus: 4-day proliferation assay, TMD8. As to conditions: 4 days incubation, CellTiterGLO, read-out: Anti-proliferation: TMD-8 IC50. It is filed as cell-based. The method, boiled down: (§2)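 TMD8 and OCI-Ly3 cells were seeded at 10,000 per well and grown 4 days at 37° C, 5% CO2 without beta-mercaptoethanol. Viability was read by CellTiter-Glo luminescence. IC50 and Hill slope were fitted relative to the low control median.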
A general note: In ATP-based viability assays light output follows the ATP content of the culture.

Assay [3] has as its system OCI-Ly3 cells. The assay can be described thus: 4-day proliferation assay, OCI-Ly3. In kind it is cell-based, human. As to conditions: 4 days incubation, CellTiterGLO, read-out: Anti-proliferation: OCI-LY-3 IC50. In short, it runs like this: as §2
For assay [4], the system named is IL6 secretion by OCI-LY3 ABC-DLBCL cells. The assay can be described thus: Human IL6 Mesoscale assay (OCI-LY3). In kind it is cell-based. The note with it: 24 h. The method, boiled down:
as §1

The test system of assay [5] is IL10 secretion by OCI-LY3 ABC-DLBCL cells. The assay can be described thus: Human IL10 Mesoscale assay (OCI-LY3). It is filed as cell-based. As to conditions: 24 h. In short, it runs like this:
as §1

In assay [6] the test system is IL10 secretion by TMD8 ABC-DLBCL cells. The assay can be described thus: Human IL10 Mesoscale assay (TMD-8). It is filed as cell-based. As to conditions: Homo sapiens, TMD8; TMD-8 cells, 24 h. The method, boiled down:
as §1

For assay [7], the system named is Jurkat cells. Put plainly: PMA Induced IL2 Production In Jurkat Cells. It is filed as cell-based. As to conditions: Homo sapiens, PMA/Ionomycin, 20 h, read-out: IL-2 prod h Jurkat PMA IC50. The method, then: Jurkat cells were maintained in complete RPMI 1640 media containing 10% fetal bovine serum, 10 mM HEPES, 100 units/mL of penicillin and 100 μg/mL of streptomycin. Prior to the assay, compounds were made 2- to 4-fold serial dilutions in DMSO. A volume of 10 μL of DMSO-diluted compound in each well were further diluted into 240 μL RPMI1640 complete media. Jurkat cells were harvested by centrifuge at 1200 RPM for 5 min, washed one time with RPMI 1640 media, and suspended in fresh complete RPMI 1640 media at concentration of 1.25×10^6 cell/mL. A volume of 160 uL of Jurkat cells (2×10^5 cells) were seeded in each well of 96 well plate-bottom plates. A volume of 20 uL of diluted compound in RMPI 1640 complete media were added to each well and incubated with Jurkat cells for 30 min at 37° C. in a 5% CO2 incubator. A volume 20 μL of diluted PMA/Ionomycin (81 nM/1.3 uM respectively, ebioscience, catalog number 00-4970-93) in RMPI 1640 complete media were added to each well. After incubation at 37° C. in 5% CO2 incubator for 20 h, supernatants were harvested. IL-2 concentration was assessed by ELISA (IL2 Duoset, R&D Systems, catalog number DY202). Colorimetric intensity at 450 nm was read by Spectramax plate reader and analyzed with Softmax Pro software. Cell viability was assessed by Cell Titer Glo kit (Promega, catalog number G7571) using Victor Luminescence reader (Victor 3V 4202938 by Perkin Elmer).

Assay [8] has as its target full-length MALT1 protein (Strep-MALT1(1-824)-His) (Homo sapiens (Human), UniProt Q9UDY8). Put plainly: MALT1 Biochemical Protease Assay (Ac-LRSR-AMC substrate). As to conditions: 10 nM FL MALT1, 200 μM Ac-LRSR-AMC, 4 h at RT; read-out: MALT1_Biochemical activity (Ac-LRSR-amc) IC50. In short, it runs like this: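 Full-length MALT1 pre-incubated with compounds (30 μM to 0.5 nM, 11 threefold steps) for 50 min at RT. After Ac-LRSR-AMC was added, the reaction ran 4 h at RT and AMC fluorescence was read. IC50 and Hill slope from curve fitting against no-enzyme and no-compound controls.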

Chain of full-length MALT1 protein (Strep-MALT1(1-824)-His) (Q9UDY8 whole entry): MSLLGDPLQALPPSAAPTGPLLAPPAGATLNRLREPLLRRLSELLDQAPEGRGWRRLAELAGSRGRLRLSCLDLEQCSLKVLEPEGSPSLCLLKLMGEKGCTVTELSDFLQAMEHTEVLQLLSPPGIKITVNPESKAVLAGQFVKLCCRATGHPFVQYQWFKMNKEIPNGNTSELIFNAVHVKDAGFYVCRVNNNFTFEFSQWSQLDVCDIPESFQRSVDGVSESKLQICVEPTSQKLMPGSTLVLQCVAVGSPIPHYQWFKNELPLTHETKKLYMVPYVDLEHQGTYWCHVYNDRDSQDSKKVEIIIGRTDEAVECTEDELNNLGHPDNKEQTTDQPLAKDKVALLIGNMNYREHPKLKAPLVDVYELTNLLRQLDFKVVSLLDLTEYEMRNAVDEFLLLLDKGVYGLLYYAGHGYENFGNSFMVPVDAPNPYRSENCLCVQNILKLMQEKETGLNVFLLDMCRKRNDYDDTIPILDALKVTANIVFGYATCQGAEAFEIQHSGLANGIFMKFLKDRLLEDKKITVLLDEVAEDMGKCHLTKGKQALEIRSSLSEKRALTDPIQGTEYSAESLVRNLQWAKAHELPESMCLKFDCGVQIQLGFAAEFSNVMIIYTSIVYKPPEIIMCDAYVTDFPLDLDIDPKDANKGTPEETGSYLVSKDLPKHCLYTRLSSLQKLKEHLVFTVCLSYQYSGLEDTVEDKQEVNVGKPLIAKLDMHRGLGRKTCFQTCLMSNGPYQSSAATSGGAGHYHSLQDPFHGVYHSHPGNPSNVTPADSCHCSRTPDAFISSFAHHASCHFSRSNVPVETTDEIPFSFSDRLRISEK

Consider `N#Cc1cc(NC(=O)c2cnn(-c3ccnc4ccccc34)c2C(F)(F)F)ccc1-n1nccn1`, for which the IC50 in assay [1] was 110 nM; in assay [2] (Homo sapiens, 96 h), 3.8 µM; in assay [3] (Homo sapiens, 96 h), 411 nM; in assay [4] (Homo sapiens), 34 nM; in assay [5] (Homo sapiens), 40 nM; in assay [6], 100 nM.
With `N#Cc1cc(NC(=O)c2cnn(-c3cccc4ccccc34)c2C(F)(F)F)ccn1` [Cpd 1, N-(2-Cyanopyridin-4-yl)-1-(naphthalen-1-yl)-5-(trifluoromethyl)-1H-pyrazole-4-carboxamide], the results for the IC50 in assay [7] and in assay [8] were 310 nM and 389 nM, respectively.
As to `N#Cc1cncc(NC(=O)c2cnn(-c3cccc4ccccc34)c2C(F)(F)F)c1` [Cpd 5, N-(5-Cyanopyridin-3-yl)-1-(naphthalen-1-yl)-5-(trifluoromethyl)-1H-pyrazole-4-carboxamide], the IC50 was 140 nM in assay [7]; 282 nM in assay [1]; 214 nM in assay [8]; > 20 µM in assay [2] (Homo sapiens, 96 h); ~780 nM in assay [3] (Homo sapiens, 96 h).
With `O=C(Nc1ccnc(C(F)(F)F)c1)c1cnn(-c2cccc3ncccc23)c1C(F)(F)F` [Cpd 6, 1-(Quinolin-5-yl)-5-(trifluoromethyl)-N-(2-(trifluoromethyl)pyridin-4-yl)-1H-pyrazole-4-carboxamide], the IC50 in assay [7] was determined as 23 nM; in assay [1] it was 112 nM; in assay [8], 91 nM; in assay [2] (Homo sapiens, 96 h), 9.33 µM; in assay [3] (Homo sapiens, 96 h), 620 nM.
Turning to `O=C(Nc1cnc(-n2ncc(CO)n2)c(Cl)c1)c1cnn(-c2cccc3c(=O)[nH]ccc23)c1C(F)(F)F` [Cpd 115, N-(5-chloro-6-(4-(hydroxymethyl)-2H-1,2,3-triazol-2-yl)pyridin-3-yl)-1-(1-oxo-1,2-dihydroisoquinolin-5-yl)-5-(trifluoromethyl)-1H-pyrazole-4-carboxamide], the IC50 in assay [1] came out at 54 nM; in assay [8] it was 12 nM; in assay [2] (Homo sapiens, 96 h) it was 20 µM; in assay [3] (Homo sapiens, 96 h) it was 1210 nM; in assay [4] (Homo sapiens), 13 nM; in assay [5] (Homo sapiens), 10 nM. This molecule also gave an IC50 in assay [6] of 46 nM.
Consider `O=C(Nc1cnc(-n2nccn2)c(Cl)c1)c1cnn(-c2cccc3c(=O)[nH]ccc23)c1C(F)(F)F` [Cpd 116, N-(5-chloro-6-(2H-1,2,3-triazol-2-yl)pyridin-3-yl)-1-(1-hydroxyisoquinolin-5-yl)-5-(trifluoromethyl)-1H-pyrazole-4-carboxamide], for which the IC50 in assay [1] was determined as 13 nM; in assay [8], 15 nM; in assay [2] (Homo sapiens, 96 h), 6.92 µM; in assay [3] (Homo sapiens, 96 h), 344 nM; in assay [4] (Homo sapiens), 18 nM; in assay [5] (Homo sapiens), 18 nM. The molecule further had an IC50 in assay [6] of 25 nM.
Consider `O=C(Nc1ccc(-n2nccn2)c(Cl)c1)c1cnn(-c2cccc3c(=O)[nH]ccc23)c1C(F)(F)F` [Cpd 129, N-(3-chloro-4-(2H-1,2,3-triazol-2-yl)phenyl)-1-(1-oxo-1,2-dihydroisoquinolin-5-yl)-5-(trifluoromethyl)-1H-pyrazole-4-carboxamide], for which the IC50 came to 120 nM in assay [1]; 16 nM in assay [8]; 2.46 µM in assay [2] (Homo sapiens, 96 h); 179 nM in assay [3] (Homo sapiens, 96 h); 18 nM in assay [4] (Homo sapiens); 14 nM in assay [5] (Homo sapiens). The molecule further gave an IC50 in assay [6] of 123 nM.
`CN(C)Cc1cnn(-c2ncc(NC(=O)c3cnn(-c4cccc5ncccc45)c3C(F)(F)F)cc2Cl)n1` [Cpd 137, N-(5-chloro-6-(4-((dimethylamino)methyl)-2H-1,2,3-triazol-2-yl)pyridin-3-yl)-1-(quinolin-5-yl)-5-(trifluoromethyl)-1H-pyrazole-4-carboxamide]: the IC50 in assay [1] was 170 nM; in assay [8], 23 nM; in assay [2] (Homo sapiens, 96 h) it was 2.4 µM; in assay [3] (Homo sapiens, 96 h), 819 nM; in assay [4] (Homo sapiens) it was 26 nM; in assay [5] (Homo sapiens), 17 nM. In assay [6], this molecule displayed an IC50 of 200 nM.
Take `O=C(Nc1cnc(-n2nccn2)c(Cl)c1)c1cnn(-c2cccc3ncsc23)c1C(F)(F)F` [Cpd 153, 1-(benzo[d]thiazol-7-yl)-N-(5-chloro-6-(2H-1,2,3-triazol-2-yl)pyridin-3-yl)-5-(trifluoromethyl)-1H-pyrazole-4-carboxamide]: the IC50 in assay [1] turned out to be 141 nM; in assay [8] it was 12 nM; in assay [2] (Homo sapiens, 96 h) it was 3.8 µM; in assay [3] (Homo sapiens, 96 h), 265 nM; in assay [4] (Homo sapiens) it was 54 nM; in assay [5] (Homo sapiens), 81 nM. Besides, the IC50 in assay [6] was 162 nM.
As for `O=C(Nc1cnc(-n2nccn2)c(Cl)c1)c1cnn(-c2cccc3scnc23)c1C(F)(F)F` [Cpd 306, 1-(benzo[d]thiazol-4-yl)-N-(5-chloro-6-(2H-1,2,3-triazol-2-yl)pyridin-3-yl)-5-(trifluoromethyl)-1H-pyrazole-4-carboxamide], the IC50 in assay [1] was > 3020 nM; in assay [8], 58 nM; in assay [2] (Homo sapiens, 96 h), 1.51 µM; in assay [3] (Homo sapiens, 96 h) it was 540 nM; in assay [4] (Homo sapiens), > 3020 nM; in assay [5] (Homo sapiens), 2630 nM. Also, in assay [6], the IC50 is > 3020 nM.
With `N#Cc1cc(NC(=O)c2cnn(-c3ncnc4ccsc34)c2C(F)(F)F)cnc1-n1nccn1` [Cpd 315, N-(5-cyano-6-(2H-1,2,3-triazol-2-yl)pyridin-3-yl)-1-(thieno[3,2-d]pyrimidin-4-yl)-5-(trifluoromethyl)-1H-pyrazole-4-carboxamide], the IC50 in assay [1] amounted to 447 nM; in assay [8], 33 nM; in assay [2] (Homo sapiens, 96 h), 6.76 µM; in assay [3] (Homo sapiens, 96 h), 1080 nM; in assay [4] (Homo sapiens) it was 95 nM; in assay [5] (Homo sapiens) it was 132 nM. For the same molecule, the IC50 in assay [6] is 339 nM.
Turning to `O=C(Nc1cnc(-n2nccn2)c(Cl)c1)c1cnn(-c2cncc3sccc23)c1C(F)(F)F` [Cpd 447, N-(5-chloro-6-(2H-1,2,3-triazol-2-yl)pyridin-3-yl)-1-(thieno[2,3-c]pyridin-4-yl)-5-(trifluoromethyl)-1H-pyrazole-4-carboxamide], the IC50 in assay [8] stood at 447 nM; in assay [2] (Homo sapiens, 96 h) it was 2.19 µM; in assay [3] (Homo sapiens, 96 h) it was 313 nM; in assay [4] (Homo sapiens) it was 46 nM; in assay [5] (Homo sapiens) it was 42 nM.
As to `O=C(Nc1cnc(-n2nccn2)c(Cl)c1)c1cnn(-c2cnc(O)c3ccccc23)c1C(F)(F)F` [Cpd 448, N-(5-chloro-6-(2H-1,2,3-triazol-2-yl)pyridin-3-yl)-1-(1-hydroxyisoquinolin-4-yl)-5-(trifluoromethyl)-1H-pyrazole-4-carboxamide], the IC50 in assay [8] was 1290 nM; in assay [2] (Homo sapiens, 96 h), 5.62 µM; in assay [3] (Homo sapiens, 96 h) it was 550 nM; in assay [4] (Homo sapiens) it was 117 nM; in assay [5] (Homo sapiens), 79 nM.
The corresponding values for `O=C(Nc1cnc(-n2nccn2)c(Cl)c1)c1cnn(-c2ccnc3ccccc23)c1C(F)(F)F` [Cpd 450, N-(5-chloro-6-(2H-1,2,3-triazol-2-yl)pyridin-3-yl)-1-(quinolin-4-yl)-5-(trifluoromethyl)-1H-pyrazole-4-carboxamide] are 10 nM, 2.82 µM, 295 nM, 107 nM and 71 nM.
With “N-(4-(4-(aminomethyl)-1H-pyrazol-1-yl)-3-chlorophenyl)-1-(quinolin-5-yl)-5-(trifluoromethyl)-1H-pyrazole-4-carboxamide [Cpd 174]”, the IC50 in assay [8] is 59 nM; in assay [2], 1.7 µM; in assay [3] it was 804 nM; in assay [4], 251 nM; in assay [5], 112 nM.
